Assay results from patent publication US12589064B2, “Trolox-peptide conjugate and use thereof” (Caregen Co., Ltd., priority 2019, dated 2026).
Where no end group is shown, it is not given here.

Legend:
Bax = assay: Expression of Bax protein involving cell death in HFDPC (western blot); assay type: cell-based, human; details: 50 μM, 24 hours; FIG. 10
Protocol: (§1) HFDPCs were dispensed by 3×10^5 in each well of a 6-well plate and cultivated overnight. The medium of the cultivated cells was replaced with a serum-free medium, treatment with Trolox of 50 μM, a Trolox-peptide (SEQ ID NO: 2) conjugate of 50 μM, or a Trolox-peptide (SEQ ID NO: 3) conjugate of 50 μM, was performed for each, and additional cultivation was performed for 24 hours. Then, protein expression change was confirmed by performing western blot using a specific antibody to Bcl-2 and Bax proteins (Santacruz biotechnology, USA).

Bcl-2 = assay: Expression of Bcl-2 protein involving cell death in HFDPC (western blot); assay type: cell-based, human; details: 50 μM, 24 hours; FIG. 10
Protocol: as §1

HaCaT human keratinocyte = assay: Cell proliferation of HaCaT human keratinocyte (MTT); assay type: cell-based; details: 0.5 μM, 5 μM or 50 μM, serum-free medium, 3 days, FIG. 5
Protocol: (§2) Human hair follicle dermal papilla cells (HFDPC) and HaCaT which is human keratinocyte were dispensed by 2×10^3 in each well of a 96-well plate and cultivated overnight. The medium of the cultivated cells was replaced with a serum-free medium, and treatment with Trolox-peptide conjugates of 0.5 μM, 5 μM or 50 μM were performed, and additional cultivation was performed for 3 days. Then, in order to confirm the proliferation of the cells, 4 mg/ml of 3-(4,5-dimethylthiazol-2-yl)-2,5-diphenyltetrazolium bromide (MTT) was put to the wells by 100 μl each and reacted for 4 hours. Formazan thus produced was treated with DMSO and dissolved, and light absorbance at 560 nm was measured using a microplate reader. In this case, as a positive control, 1 μM of IGF-1 or EGF, which is known as a growth factor promoting the proliferation of HFDPC and HaCaT cells was used, and as a comparison group, single compounds of Trolox and a peptide having the amino acid sequences of SEQ ID NO: 1 to SEQ ID NO: 3, having the same amounts as the Trolox-peptide conjugate of the present invention, were used.

[1] = system: Human hair follicle dermal papilla cells (HFDPC); assay: Cell proliferation of HFDPC (MTT); assay type: cell-based; details: 0.5 μM, 5 μM or 50 μM, serum-free medium, 3 days, FIG. 4
Protocol: as §2

P-smad 1/5/8 protein = assay: BMP2 cell signal transduction: P-smad 1/5/8 in HFDPC (western blot); assay type: cell-based, human; details: 50 μM, 50 ng/μl BMP-2, 15 minutes; FIG. 13
Protocol: HFDPCs were dispensed by 3×10^5 in each well of a 6-well plate and cultivated overnight. The medium of the cultivated cells was replaced with a serum-free medium, and the experiments below were performed.
The HFDPC cells were treated with 50 ng/μl of BMP-2 and a Trolox-peptide (SEQ ID NO: 1) conjugate of 5 μM or 50 μM, and additionally cultivated for 15 minutes. Then, western blot was performed using a specific […] to a P-smad 1/5/8 protein which is a subprotein of which expression is controlled by BMP2 cell signal transduction (Cell signaling, USA), and the expression change of a protein was confirmed.

Compound	expression of Bax (Bax)	expression of Bcl-2 (Bcl-2)	cell proliferation of HaCaT (HaCaT human keratinocyte)	cell proliferation of HFDPC [1]	level of expression of the P-smad 1/5/8 protein increased by the treatment with BMP2 (P-smad 1/5/8 protein)
Cc1c(C)c2c(c(C)c1O)CCC(C)(C(=O)O)O2 (centres unmarked) [Trolox, 6-hydroxy-2,5,7,8-tetramethylchromane-2-carboxylic acid]	increased	no change	rarely showed cell proliferation effects	rarely showed cell proliferation effects	
Trolox-peptide (SEQ ID NO: 1) conjugate: Trolox chemically bonded to the peptide Glu-Leu-Ile-Glu-His-Gly-Gly-Gly-Arg-Pro-Ala-Asp (SEQ ID NO: 1) (ELIEHGGGRPAD; not fully specified (N-terminus); printed as Glu-Leu-Ile-Glu-His-Gly-Gly-Gly-Arg-Pro-Ala-Asp; also: Trolox chemically bonded, site not given here)					reduced
